Results published in PubChem BioAssay (NCI).
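Each compound was tested at five concentrations against cells in 96-well plates for 48 hours. GI50 = concentration required for 50% inhibition of growth. TGI is the concentration that stops growth completely.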

Columns and labels:
Assay in all cases: growth of human tumour cells (NCI), 48 h
MCF7 breast = tested on: MCF7 breast
MDA-MB-435 = tested on: MDA-MB-435
RPMI-8226 leukemia = tested on: RPMI-8226 leukemia
SF-539 CNS = tested on: SF-539 CNS
SK-MEL-28 melanoma = tested on: SK-MEL-28 melanoma
NCI-H226 lung = tested on: NCI-H226 lung
LOX IMVI melanoma = tested on: LOX IMVI melanoma
HT29 colon = tested on: HT29 colon
SN12C renal = tested on: SN12C renal
KM12 colon = tested on: KM12 colon
PC-3 prostate = tested on: PC-3 prostate
UO-31 renal = tested on: UO-31 renal
HOP-92 NSCLC = tested on: HOP-92 NSCLC
UACC-62 melanoma = tested on: UACC-62 melanoma
SNB-75 CNS = tested on: SNB-75 CNS
EKVX NSCLC = tested on: EKVX NSCLC
SK-MEL-2 melanoma = tested on: SK-MEL-2 melanoma
IGROV1 ovarian = tested on: IGROV1 ovarian
SF-295 CNS = tested on: SF-295 CNS
786-0 renal = tested on: 786-0 renal
ACHN renal = tested on: ACHN renal
MALME-3M melanoma = tested on: MALME-3M melanoma
RXF 393 renal = tested on: RXF 393 renal
CCRF-CEM leukemia = tested on: CCRF-CEM leukemia
COLO 205 colon = tested on: COLO 205 colon
SF-268 CNS = tested on: SF-268 CNS
HCT-116 colon = tested on: HCT-116 colon
OVCAR-5 ovarian = tested on: OVCAR-5 ovarian
A549 NSCLC = tested on: A549 NSCLC
U251 CNS = tested on: U251 CNS
BT-549 breast = tested on: BT-549 breast
HCT-15 colon = tested on: HCT-15 colon
OVCAR-3 ovarian = tested on: OVCAR-3 ovarian
CAKI-1 renal = tested on: CAKI-1 renal
SK-MEL-5 melanoma = tested on: SK-MEL-5 melanoma
MOLT-4 leukemia = tested on: MOLT-4 leukemia
T-47D breast = tested on: T-47D breast
MDA-MB-231 breast = tested on: MDA-MB-231 breast
NCI-H522 lung = tested on: NCI-H522 lung
HL-60(TB) leukemia = tested on: HL-60(TB) leukemia
HS 578T breast = tested on: HS 578T breast
SW-620 colon = tested on: SW-620 colon
OVCAR-8 ovarian = tested on: OVCAR-8 ovarian
NCI-H460 lung = tested on: NCI-H460 lung
NCI-H23 lung = tested on: NCI-H23 lung
SNB-19 CNS = tested on: SNB-19 CNS
M14 melanoma = tested on: M14 melanoma
SK-OV-3 ovarian = tested on: SK-OV-3 ovarian
TK-10 renal = tested on: TK-10 renal
HOP-62 NSCLC = tested on: HOP-62 NSCLC
DU-145 prostate = tested on: DU-145 prostate
HCC-2998 colon = tested on: HCC-2998 colon
UACC-257 melanoma = tested on: UACC-257 melanoma
K-562 leukemia = tested on: K-562 leukemia
OVCAR-4 ovarian = tested on: OVCAR-4 ovarian
A498 renal = tested on: A498 renal
NCI/ADR-RES ovarian = tested on: NCI/ADR-RES ovarian

C[C@@H]1CN(c2ccc3ncc(C#Cc4cncc(C(=O)Nc5ccc(CN6CCN(C)CC6)c(C(F)(F)F)c5)c4)n3n2)C[C@H](C)O1
GI50 (MCF7 breast): 51.3 nM
TGI (MCF7 breast): 651 nM
GI50 (MDA-MB-435): 86.1 nM
TGI (MDA-MB-435): 1110 nM
GI50 (RPMI-8226 leukemia): 258 nM
TGI (RPMI-8226 leukemia): 5640 nM
GI50 (SF-539 CNS): 33.2 nM
TGI (SF-539 CNS): 135 nM
GI50 (SK-MEL-28 melanoma): 295 nM
TGI (SK-MEL-28 melanoma): 1340 nM
GI50 (NCI-H226 lung): 33.9 nM
TGI (NCI-H226 lung): 334 nM
GI50 (LOX IMVI melanoma): 36.8 nM
TGI (LOX IMVI melanoma): 144 nM
GI50 (HT29 colon): 67.4 nM
TGI (HT29 colon): 1100 nM
GI50 (SN12C renal): 26.9 nM
TGI (SN12C renal): 275 nM
TGI (KM12 colon): 563 nM
GI50 (PC-3 prostate): 128 nM
TGI (PC-3 prostate): 1810 nM
GI50 (UO-31 renal): 79.8 nM
TGI (UO-31 renal): 361 nM
GI50 (HOP-92 NSCLC): 28.8 nM
TGI (HOP-92 NSCLC): 118 nM
GI50 (UACC-62 melanoma): 138 nM
TGI (UACC-62 melanoma): 1010 nM
GI50 (SNB-75 CNS): 102 nM
TGI (SNB-75 CNS): 235 nM
GI50 (EKVX NSCLC): 39.9 nM
TGI (EKVX NSCLC): 300 nM
GI50 (SK-MEL-2 melanoma): 130 nM
TGI (SK-MEL-2 melanoma): 294 nM
GI50 (IGROV1 ovarian): 34.4 nM
TGI (IGROV1 ovarian): 201 nM
GI50 (SF-295 CNS): 214 nM
TGI (SF-295 CNS): 1530 nM
GI50 (786-0 renal): 48.3 nM
TGI (786-0 renal): 202 nM
GI50 (ACHN renal): 37.5 nM
TGI (ACHN renal): 211 nM
GI50 (MALME-3M melanoma): 77.8 nM
TGI (MALME-3M melanoma): 251 nM
GI50 (RXF 393 renal): 30.1 nM
TGI (RXF 393 renal): 141 nM
GI50 (CCRF-CEM leukemia): 200 nM
TGI (CCRF-CEM leukemia): 10300 nM
GI50 (COLO 205 colon): 135 nM
TGI (COLO 205 colon): 781 nM
GI50 (SF-268 CNS): 111 nM
TGI (SF-268 CNS): 522 nM
GI50 (HCT-116 colon): 34.5 nM
TGI (HCT-116 colon): 274 nM
GI50 (OVCAR-5 ovarian): 157 nM
TGI (OVCAR-5 ovarian): 975 nM
GI50 (A549 NSCLC): 63.6 nM
TGI (A549 NSCLC): 410 nM
GI50 (U251 CNS): 119 nM
TGI (U251 CNS): 1300 nM
GI50 (BT-549 breast): 135 nM
TGI (BT-549 breast): 411 nM
GI50 (HCT-15 colon): 45.4 nM
TGI (HCT-15 colon): 471 nM
GI50 (OVCAR-3 ovarian): 98.2 nM
TGI (OVCAR-3 ovarian): 1150 nM
GI50 (CAKI-1 renal): 33.9 nM
TGI (CAKI-1 renal): 157 nM
GI50 (SK-MEL-5 melanoma): 270 nM
TGI (SK-MEL-5 melanoma): 1160 nM
GI50 (MOLT-4 leukemia): 77.7 nM
TGI (MOLT-4 leukemia): 529 nM
GI50 (T-47D breast): 363 nM
TGI (T-47D breast): 5360 nM
GI50 (MDA-MB-231 breast): 32 nM
TGI (MDA-MB-231 breast): 223 nM
GI50 (NCI-H522 lung): 33.9 nM
TGI (NCI-H522 lung): 181 nM
GI50 (HL-60(TB) leukemia): 50.7 nM
TGI (HL-60(TB) leukemia): 312 nM
GI50 (HS 578T breast): 32.8 nM
TGI (HS 578T breast): 348 nM
GI50 (SW-620 colon): 57.7 nM
TGI (SW-620 colon): 2450 nM
GI50 (OVCAR-8 ovarian): 176 nM
TGI (OVCAR-8 ovarian): 991 nM
GI50 (NCI-H460 lung): 74.9 nM
TGI (NCI-H460 lung): 732 nM
GI50 (NCI-H23 lung): 102 nM
TGI (NCI-H23 lung): 322 nM
GI50 (SNB-19 CNS): 325 nM
TGI (SNB-19 CNS): 1150 nM
GI50 (M14 melanoma): 36.5 nM
TGI (M14 melanoma): 322 nM
GI50 (SK-OV-3 ovarian): 216 nM
TGI (SK-OV-3 ovarian): 736 nM
GI50 (TK-10 renal): 68.3 nM
TGI (TK-10 renal): 400 nM
GI50 (HOP-62 NSCLC): 121 nM
TGI (HOP-62 NSCLC): 844 nM
GI50 (DU-145 prostate): 50.4 nM
TGI (DU-145 prostate): 292 nM
GI50 (HCC-2998 colon): 153 nM
TGI (HCC-2998 colon): 956 nM
GI50 (UACC-257 melanoma): 228 nM
TGI (UACC-257 melanoma): 1410 nM
TGI (K-562 leukemia): 359 nM
GI50 (OVCAR-4 ovarian): 123 nM
TGI (OVCAR-4 ovarian): 1590 nM
GI50 (A498 renal): 118 nM
TGI (A498 renal): 253 nM
GI50 (NCI/ADR-RES ovarian): 445 nM
TGI (NCI/ADR-RES ovarian): 1910 nM
